Results as given in US11161845B2, “Pyrrolopyridine-aniline compounds for treatment of dermal disorders” (Nflection Therapeutics, Inc., priority 2017, dated 2021).
Read-outs that look alike come from different tables or passages of the source.

Experiments:
MAP2K1 (MEK1) = biological target: T1, MAP2K1 (MEK1) (Homo sapiens, UniProt Q02750); assay: MEK inhibition assay, Biological Example 1b (Z'-LYTE); settings: Biological Example 1b (compounds 8, 10, 12 and 13); read-out: Assay 1: biochemical MEK IC50
T1 construct: purchased ThermoFisher
Description: MEK1 inhibitory activity of compounds were tested using the following procedure (protocol available at thermofisher.com/content/dam/LifeTech/migration/files/drug-discovery/pdfs.par.60256.file.dat/20130430%20ssbk%20customer %20protocol%20and %20assay%20conditions.pdf). The Z′-LYTE biochemical assay (ThermoFisher) employs a fluorescence-based, coupled-enzyme format and is based on the differential sensitivity of phosphorylated and non-phosphorylated peptides to proteolytic cleavage.
Test compounds in 100% DMSO were screened in 1% DMSO (final) in the well. For 10 point titrations, 3-fold serial dilutions are conducted from the starting concentration of 30 μM.
After the 1 hour incubation, 5 μL of a 1:1024 dilution of Development Reagent A (available from Invitrogen, catalog no. PV3295) was added.
ATP solutions were diluted to a 4× working concentration in Kinase Buffer (50 mM HEPES pH 7.5, 0.01% BRIJ-35, 10 mM MgCl2, 1 mM EGTA). ATP Km apparent was previously determined using a Z′-LYTE assay. The Development Reagent was diluted in Development Buffer (available from Invitrogen, catalog no. P3127).
Assay Protocol: 2.5 μL of 4× test compound or 100 nL of 100× Test Compound plus 2.4 μL Kinase Buffer, 5 μL of the 2× Peptide/Kinase Mixture, 2.5 μL of 4×ATP Solution were added to the plates and placed on a shake plate for 30-seconds. The kinase reaction was allowed to proceed for 60-minute at room temperature, before 5 μL of Development Reagent Solution was added, and the mixture agitated for 30-seconds on a shake plate. The mixture was incubated for 60-minute at room temperature. Fluorescence was measured using a plate reader and the data were analyzed.
This control yielded 100% cleaved peptide in the Development Reaction. The 100% Phosphorylation Control, which consisted of a synthetically phosphorylated peptide of the same sequence as the peptide substrate, was designed to allow for the calculation of percent phosphorylation. This control yielded a very low percentage of cleaved peptide in the Development Reaction. The 0% Phosphorylation and 100% Phosphorylation Controls allow for the calculation of the percent phosphorylation achieved in a specific reaction well.
The minimum emission ratio in a screen was established by the 0% Inhibition Control, which contained active kinase. This control was designed to produce a 10-50% phosphorylated peptide in the Kinase Reaction. […]
A known inhibitor control standard curve, 10 point titration, was run for each individual kinase on the same plate as the kinase to ensure the kinase was inhibited within an expected IC50 range previously determined.
The following controls are prepared for each concentration of Test Compound assayed. […] The expected value for a non-fluorescence compound should be 0%. […]
The data in Table A was calculated. […]

[1] = S9 stability assay, human liver S9 fraction; assay type: in vitro ADME; settings: for half-life at 1 μM / microsomal CLint at 1 μM: pH 7.4
Description: Compounds were assessed for metabolic stability in human skin by assessing their rate of disappearance from human S9 skin fraction. Similarly, compounds were assessed for metabolic stability in human liver by assessing their rate of disappearance from human S9 liver fraction. The protocol below can be used to assess the difference between skin and hepatic metabolism.
The assay was carried out in 96-well microtiter plates at 37° C. Reaction mixtures (25 μL) contained a final concentration of 1 μM test compound, 2 mg/mL liver or skin S9 protein, and 1 mM NADPH in buffer (100 mM potassium phosphate, pH 7.4 buffer with 1 mM EDTA, 3 mM MgCl2). At each of the time points (0, 15, 30, and 60 minutes), 150 μL of quench solution (100% acetonitrile with 0.1% formic acid) with internal standard was transferred to each well. Besides the zero minute controls, mixtures containing the same components except the NADPH were also prepared as the negative control. Verapamil or testosterone was included as a positive control to verify assay performance. Plates were sealed and centrifuged at 4° C. for 15 minutes at 4000 rpm. The supernatant was transferred to fresh plates for LC/MS/MS analysis.
All samples were analyzed on LC/MS/MS using an AB Sciex API 4000 instrument, coupled to a Shimadzu LC-20AD LC Pump system. Analytical samples were separated using a Waters Atlantis T3 dC18 reverse phase HPLC column (20 mm×2.1 mm) at a flow rate of 0.5 mL/min. The mobile phase consisted of 0.1% formic acid in water (solvent A) and 0.1% formic acid in 100% acetonitrile (solvent B).
The extent of metabolism was calculated as the disappearance of the test compound, compared to the 0-min control reaction incubations. Initial rates were calculated for the compound concentration and used to determine t1/2 values and subsequently, the intrinsic clearance, CLint=(0.693) (1/t1/2 (min)) (mL incubation/mg of S9 protein).

HCT116 cells = assay: HCT116 (Kras) GI50 cell-based assay (Cell Titer-Glo); settings: Homo sapiens, HCT-116; 72 hours; read-out: Assay 3: HCT116 (Kras) GI50
Description: (§1) Alternatively, the following procedure can be used to measure cell-based activity. Test compounds were dissolved in DMSO in 10 mM stock. Cell Titer-Glo® 2.0 Luminescent cell viability assay reagent was purchased from Promega (Madison, Wis.). A375 and HCT116 cell lines were purchased from American Type Culture Collection (Manassas, Va.). For A375 cells, cell culture media was DMEM+10% FBS. For HCT116 cells, cell culture media was McCoy's 5A+10% FBS. All media were supplemented with 100 μg/mL of penicillin, and 100 μg/mL of streptomycin. Cultures were maintained at 37° C. in a humidified atmosphere of 5% CO2 and 95% air.
(§2) Test compounds were diluted in DMSO solution with 10-dose and 3-fold dilutions in a source plate starting at 10 mM. 25 nL of each test compound was delivered from the source plate to each well of the 384-well cell culture plates (T=Final) by Echo 550. 25 μL of culture medium containing 2000 of A375 or HCT116 cells was added to each of the wells in duplicates of the cell culture plates (T=0 and T=Final). 25 μL of Cell Titer Glo 2.0 reagent was added to each well of cell culture plate (T=0). The contents were mixed on an orbital shaker for 2 min and incubated at room temperature for 15 min to stabilize luminescent signal. Luminescence was recorded by Envision 2104 Multilabel Reader (PerkinElmer, Santa Clara, Calif.). The number of viable cells in culture was determined based on quantitation of the ATP present in each culture well. The cells in cell culture plate (T=Final) were incubated with the compounds at 37° C., 5% CO2 for 72 hours. 25 μL of Cell Titer Glo 2.0 reagent was added to each well. The contents were mixed on an orbital shaker for 2 min and incubated at room temperature for 15 min to stabilize luminescent signal. Luminescence was recorded by Envision 2104 Multilabel Reader (PerkinElmer, Santa Clara, Calif.). The number of viable cells in culture was determined based on quantitation of the ATP present in each culture well. The G150 curves were plotted using the GraphPad Prism 4 program based on a sigmoidal dose-response equation Y=Bottom+(Top−Bottom)/(1+10^((Log EC50−X)*HillSlope)). All parameters in the equation were calculated by GraphPad Prism 4 program. […] Accordingly, GI50 is the value of 10^X, where X was calculated by the Curve Fitting Equation when Y=50 using Excel.

A375 cells = assay: A375 (BRAF) GI50 cell-based assay (Cell Titer-Glo); settings: Homo sapiens, A-375; 72 hours; read-out: Assay 2: A375 (BRAF) GI50
Description: as §1, §2

MEK1 = biological target: T2, MEK1 (Homo sapiens, UniProt Q02750); assay: MEK inhibition assay, Biological Example 1a (33P-ATP, P81 filter-binding); settings: read-out: Assay 1: biochemical MEK IC50
T2 construct: N-terminal His-tagged recombinant human full length protein; His (N); purchased Invitrogen PV3303; host or cells: insect cells
Description: MEK1 inhibitory activity of compounds were tested using the following procedure. […] Activated in vitro by RAF1. MW=49.2 kDa, GenBank Accession No. NP_002746. • Substrate: 5 μM ERK2 (K52R), • Kinase-dead mutant, (GenBank Accession No. NM_0011949), aa2-358 with N-terminal His6 tag, MW=43.63 kDa, expressed in E. coli.
The substrate was prepared in freshly prepared Reaction Buffer. The kinase was delivered into the substrate solution and gently mixed. Test compounds were delivered in 100% DMSO into the kinase reaction mixture by Acoustic technology (Echo550; nanoliter range), and incubated for 20 min at room temperature. ^33P-ATP was delivered into the reaction mixture to initiate the reaction. The reaction mixture was incubated for 2 hours at room temperature. Kinase activity was detected by P81 filter-binding method.

[2] = human, liver S9 fraction, Table 2, 1 μM, 2 mg/mL S9 protein, NADPH, read-out: Assay 4: human liver S9 half-life
[3] = human, liver S9 fraction, Table 2, 1 μM, 2 mg/mL S9 protein, NADPH, read-out: Assay 5: human liver S9 instrinsic clearance value

T1 sequence (Q02750 whole entry): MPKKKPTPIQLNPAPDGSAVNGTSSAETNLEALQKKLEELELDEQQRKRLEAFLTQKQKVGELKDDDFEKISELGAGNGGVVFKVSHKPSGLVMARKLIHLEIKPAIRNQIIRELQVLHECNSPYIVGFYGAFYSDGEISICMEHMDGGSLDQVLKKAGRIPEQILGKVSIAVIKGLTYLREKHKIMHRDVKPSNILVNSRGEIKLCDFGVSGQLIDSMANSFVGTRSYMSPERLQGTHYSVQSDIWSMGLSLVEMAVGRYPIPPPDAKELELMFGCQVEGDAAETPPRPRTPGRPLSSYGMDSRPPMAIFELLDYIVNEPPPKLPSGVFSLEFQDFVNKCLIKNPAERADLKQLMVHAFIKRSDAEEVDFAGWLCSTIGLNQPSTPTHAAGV
T2 sequence (Q02750 whole entry): as above

With `Cn1c(Nc2ccc(I)cc2F)c(C(=O)NC[C@H](O)CO)c2cccnc21` [Example 10, (S)—N-(2,3-dihydroxypropyl)-2-((2-fluoro-4-iodophenyl)amino)-1-methyl-1H-pyrrolo[2,3-b]pyridine-3-carboxamide] the IC50 (MAP2K1 (MEK1)) was 1770 nM, the half-life at 1 μM [1, 2] was 96 min and the microsomal CLint at 1 μM [1, 3] was 3.59 µL/min/mg.
`Cn1c(Nc2ccc(I)cc2F)c(C(N)=O)c2cccnc21` [Example 13, 2-(2-Fluoro-4-iodoanilino)-1-methyl-1H-pyrrolo[2,3-b]pyridine-3-carboxamide] gave an IC50 (MAP2K1 (MEK1)) of 9610 nM, a half-life at 1 μM [1, 2] of 23 min and a microsomal CLint at 1 μM [1, 3] of 15.4 µL/min/mg.
`Cn1c(Nc2ccc(I)cc2F)c(C(=O)NOCC2CC2)c2cccnc21` [Example 7, N-(Cyclopropylmethoxy)-2-((2-fluoro-4-iodophenyl)amino)-1-methyl-1H-pyrrolo[2,3-b]pyridine-3-carboxamide] showed a GI50 (HCT116 cells) of 346 nM, a GI50 (A375 cells) of 346 nM and an IC50 (MEK1) of 260 nM. The “Assay 5: human liver S9 instrinsic clearance value” ([1]; Table 2, 1 μM, 2 mg/mL S9 protein, NADPH) was 44.80 μL/min/mg protein, the microsomal CLint at 1 μM ([1]; Table 1, human liver S9 fraction, read-out: CLint) was 44.8 µL/min/mg and the half-life at 1 μM ([1]; Table 1, human liver S9 fraction, read-out: Liver S9 t1/2) was 8 min.
In the case of `COc1cnc2c(c1)c(C(=O)NOCCO)c(Nc1ccc(I)cc1F)n2C` [Example 8, 2-((2-Fluoro-4-iodophenyl)amino)—N-(2-hydroxyethoxy)-5-methoxy-1-methyl-1H-pyrrolo[2,3-b]pyridine-3-carboxamide], the IC50 (MAP2K1 (MEK1)) is reported as 243 nM, the half-life at 1 μM [1, 2] is reported as 34 min and the microsomal CLint at 1 μM [1, 3] is reported as 10.3 µL/min/mg.
Compound `Cn1c(Nc2ccc(I)cc2F)c(C(=O)NC[C@@H](O)CO)c2cccnc21` [Example 12, (R)—N-(2,3-dihydroxypropyl)-2-((2-fluoro-4-iodophenyl)amino)-1-methyl-1H-pyrrolo[2,3-b]pyridine-3-carboxamide] has an IC50 (MAP2K1 (MEK1)) of 1780 nM, a half-life at 1 μM [1, 2] of 105 min and a microsomal CLint at 1 μM [1, 3] of 3.29 µL/min/mg.
In the case of `Cn1c(Nc2ccc(I)cc2F)c(C(=O)NO)c2cccnc21` [Example 4, 2-((2-Fluoro-4-iodophenyl)amino)—N-hydroxy-1-methyl-1H-pyrrolo[2,3-b]pyridine-3-carboxamide], the GI50 (HCT116 cells) is reported as 5010 nM, the GI50 (A375 cells) is reported as 809 nM and the IC50 (MEK1) is reported as 671 nM. It also gave a half-life at 1 μM [1, 2] of 21 min and a microsomal CLint at 1 μM [1, 3] of 16.5 µL/min/mg.
In the case of `Cn1c(Nc2ccc(I)cc2F)c(C(=O)NOC[C@H](O)CO)c2cccnc21` [Example 6, (R)—N-(2,3-Dihydroxypropoxy)-2-((2-fluoro-4-iodophenyl)amino)-1-methyl-1H-pyrrolo[2,3-b]pyridine-3-carboxamide], the GI50 (HCT116 cells) is reported as 448 nM, the GI50 (A375 cells) is reported as 81 nM and the IC50 (MEK1) is reported as 371 nM. The half-life at 1 μM [1, 2] was 90 min and the microsomal CLint at 1 μM [1, 3] was 3.85 µL/min/mg.
